Assay results published in patent US5610139A, “Antimicrobial compositions and pharmaceutical preparations thereof” (Seikagaku Corporation, priority 1992, dated 1997).
≈ marks a conversion by molar mass, not a printed value. Read-outs that look alike come from different tables or passages of the source. Where a SMILES comes first, the peptide text is derived from it. Bridges are numbered along the chain shown (N, C = ends).

Assays:
MRSA No. 3-50 strain = type: cell-based, Staphylococcus aureus; settings: for growth: MRSA No. 3-50; for MIC, single administration of the peptide: MRSA; as to growth: key: + shows growth; - shows no growth
Text: Synergistic antimicrobial activities by the combinations of tachyplesin I and β-lactam antibiotics or chloramphenicol antibiotics against above mentioned clinically isolated MRSAs were examined and the results against MRSA No. 3-50 strain are shown in the following Tables.

[1] = test system: 55 strains of clinically isolated MRSA; type: cell-based, Staphylococcus aureus
Text: The MRSAs used for the experiments shown below were isolated as follows. Specimens of urine, sputa and pus of hospitalized patients in Nagoya University, School of Medicine Hospital were smeared and cultured on blood agar medium. Staphylococcus aureus was isolated and identified from the grown colonies. Their sensitivity were examined using BBL test disks containing one μg of oxacillin (BBL Microbiology System Co., Ltd.) and strains showing inhibitory zone of 10 mm or less were classified as MRSA. A total of 55 strains of MRSA Nos. 170, 199, 3-50, 3-53 and so forth were isolated. Their sensitivity were confirmed by an agar plate dilution method using Mueller-Hinton agar medium of BBL (BBL Microbiology System Co., Ltd.) containing 100, 50, 25, 12.5, 6.3, 3.2, 1.6 or 0.8 μg/ml of methicillin (Banyu Pharmaceutical Co., Ltd.).
MRSAs obtained by the preceding method were cultured in L medium (1% bactotrypton, 0.5% yeast extract, 0.5% NaCl, pH 7.2) overnight and diluted 40-fold with a phosphate buffered saline solution (PBS).
Separately, tachyplesin I was diluted by 2-fold method using M9 medium (a synthetic medium added with 1% casamino acid) or T broth (0.5% bactotrypton and 0.5% NaCl) to give concentrations of 200-0.4 μg/ml and poured in a 96 well microplate at 100 μl/well each.
The 40-fold diluted bacterial solution was further diluted 10-fold with the M9 medium or T broth and poured 100 μl each to the above wells and the combined solution was mixed to give final concentration of 100-0.2 μg/ml of tachyplesin I. The bacterial concentration was made approximately 10^6 cfu/well (cfu=colony forming unit).
The resultant mixed solutions of bacterial and tachyplesin I solutions were cultured overnight (18 hrs.) at 37° C. The growth of bacteria was determined by the turbidity of the medium and the minimum concentration required to inhibit their growth was used as the minimum inhibitory concentration (MIC).
MICs of various antimicrobial peptides derived from horseshoe crab against 55 strains of clinically isolated MRSA were determined by a similar method to that shown above.

[2] = test system: artificial vesicles using inner membrane of E. coli; experiment: Action on membrane potential in artificial vesicles in vitro; type: biochemical
Text: The antimicrobial mechanisms of the peptides such as tachyplesins against MRSAs are supposed to be similar to those of against Escherichia coil and Salmonella spp. There is an energy producing mechanism by oxidative phosphorylation in cytoplasmic membrane of bacteria, which couples with membrane potential. The action mechanism against E. coli was modeled in artificial vesicles using inner membrane of E. coli and the action of tachyplesin I was investigated in vitro.

[3] = antibiotic 10 μg/ml alone (TAC-I 0 μg/ml)
[4] = antibiotic 20 μg/ml alone (TAC-I 0 μg/ml)
[5] = against 55 strains of clinically isolated MRSA

Row | Structure (SMILES) | growth (MRSA No. 3-50 strain; [3]) | growth (MRSA No. 3-50 strain; [4]) | MIC, single administration of the peptide (MRSA No. 3-50 strain) [µg/mL] | MIC [1, 5] [µg/mL] | further results
1 | CC1(C)S[C@@H]2[C@H](NC(=O)[C@H](N)c3ccccc3)C(=O)N2[C@H]1C(=O)O [ABPC, Ampicillin] | + | + |  |  | 
2 | Cc1nnc(SCC2=C(C(=O)O)N3C(=O)[C@@H](NC(=O)Cn4cnnn4)[C@H]3SC2)s1 [CEZ, Cefazolin] | + | + |  |  | growth (MRSA No. 3-50 strain; antibiotic 40 μg/ml alone (TAC-I 0 μg/ml)): -
3 | O=C(N[C@H](CO)[C@H](O)c1ccc([N+](=O)[O-])cc1)C(Cl)Cl [CP, Chloramphenicol] | + | + |  |  | growth (MRSA No. 3-50 strain; antibiotic 5 μg/ml alone (TAC-I 0 μg/ml)): +
4 | CC(C)[C@@H]1NC(=O)[C@H](CCCNC(=N)N)NC(=O)[C@H](Cc2ccccc2)NC(=O)[C@@H](NC(=O)[C@H](Cc2c[nH]c3ccccc23)NC(=O)[C@H](CCCNC(=N)N)NC(=O)[C@@H](N)CCCNC(=N)N)CSSC[C@@H](C(=O)N[C@@H](CCCNC(=N)N)C(N)=O)NC(=O)[C@H](CCCCN)NC(=O)[C@H](CCCNC(=N)N)NC(=O)[C@H](Cc2ccc(O)cc2)NC(=O)[C@@H]2CSSC[C@H](NC1=O)C(=O)N[C@@H](Cc1ccc(O)cc1)C(=O)N[C@@H](CCCCN)C(=O)NCC(=O)N[C@@H](Cc1ccccc1)C(=O)N2 [Polyphemusin II] (H-RRWCFRVCYKGFCYRKCR-NH2; disulfide 4-17, 8-13) |  |  | 6.3 | 6.3 (≈ 2.6 µM) | 
5 | CC[C@H](C)[C@@H]1NC(=O)CNC(=O)[C@H](CCCNC(=N)N)NC(=O)[C@H](Cc2ccc(O)cc2)NC(=O)[C@@H]2CSSC[C@H](NC1=O)C(=O)N[C@@H](Cc1ccc(O)cc1)C(=O)N[C@@H](CCCNC(=N)N)C(=O)N[C@@H](CCCCN)C(=O)N[C@H](C(=O)N[C@@H](CCCNC(=N)N)C(N)=O)CSSC[C@H](NC(=O)[C@H](Cc1c[nH]c3ccccc13)NC(=O)[C@@H](N)CCCNC(=N)N)C(=O)N[C@@H](Cc1ccccc1)C(=O)N[C@@H](CCCNC(=N)N)C(=O)N[C@@H](C(C)C)C(=O)N2 [Tachyplesin II] (H-RWCFRVCYRGICYRKCR-NH2; disulfide 3-16, 7-12; N-terminus and C-terminus assumed) |  |  |  | 3.2 (≈ 1.41 µM) | 
6 | CC[C@H](C)[C@@H]1NC(=O)CNC(=O)[C@H](CCCNC(=N)N)NC(=O)[C@H](Cc2ccc(O)cc2)NC(=O)[C@@H]2CSSC[C@H](NC1=O)C(=O)N[C@@H](Cc1ccc(O)cc1)C(=O)N[C@@H](CCCNC(=N)N)C(=O)N[C@@H](CCCNC(=N)N)C(=O)N[C@H](C(=O)N[C@@H](CCCNC(=N)N)C(N)=O)CSSC[C@H](NC(=O)[C@H](Cc1c[nH]c3ccccc13)NC(=O)[C@@H](N)CCCCN)C(=O)N[C@@H](Cc1ccccc1)C(=O)N[C@@H](CCCNC(=N)N)C(=O)N[C@@H](C(C)C)C(=O)N2 [Tachyplesin I] (H-KWCFRVCYRGICYRRCR-NH2; disulfide 3-16, 7-12; N-terminus and C-terminus assumed) |  |  | 3.2 |  | effect on membrane potential generated in the cytoplasmic membrane [2]: depolarized the membrane potential; growth (MRSA No. 3-50 strain; TAC-I 0.4 μg/ml alone (antibiotic 0 μg/ml)): +; growth (MRSA No. 3-50 strain; TAC-I 0.8 μg/ml alone (antibiotic 0 μg/ml)): +; growth (MRSA No. 3-50 strain; TAC-I 1.6 μg/ml alone (antibiotic 0 μg/ml)): +; MIC ([1]; 47 strains (85% of total 55 MRSA strains)): 6.3 µg/mL (≈ 2.78 µM); MIC ([1]; one strain (2% of total 55 MRSA strains)): 12.5 µg/mL (≈ 5.52 µM); MIC ([1]; seven strains (13% of total 55 MRSA strains)): 3.2 µg/mL (≈ 1.41 µM)
